Data reported in PubChem BioAssay (NCI).
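Cells were grown in 96-well plates and exposed to each compound for 48 hours at five concentrations; endpoints were interpolated linearly between bracketing concentrations, or set to the highest concentration if not reached. Definition used: TGI = concentration required for complete inhibition of growth.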

How the values were obtained:
Assay in all cases: NCI tumour cell line growth inhibition, 48 h
NCI-H460 lung = tested on: NCI-H460 lung
DMS 114 small cell lung = tested on: DMS 114 small cell lung
DMS 273 small cell lung = tested on: DMS 273 small cell lung
A549 NSCLC = tested on: A549 NSCLC
DLD-1 colon = tested on: DLD-1 colon
786-0 renal = tested on: 786-0 renal
K-562 leukemia = tested on: K-562 leukemia
NCI-H226 lung = tested on: NCI-H226 lung
M14 melanoma = tested on: M14 melanoma
SR leukemia = tested on: SR leukemia
RPMI-8226 leukemia = tested on: RPMI-8226 leukemia
SK-MEL-2 melanoma = tested on: SK-MEL-2 melanoma
CCRF-CEM leukemia = tested on: CCRF-CEM leukemia
XF 498 CNS = tested on: XF 498 CNS
EKVX NSCLC = tested on: EKVX NSCLC
LXFL 529 NSCLC = tested on: LXFL 529 NSCLC
PC-3 prostate = tested on: PC-3 prostate

With `CN(C)CC1CCCC(CN(C)C)C1=NOC(=O)c1ccccc1` (stereo not given) the TGI (NCI-H460 lung) was over 100 µM, the TGI (DMS 114 small cell lung) was over 100 µM and the TGI (DMS 273 small cell lung) was over 100 µM. The TGI (A549 NSCLC) was over 100 µM, the TGI (DLD-1 colon) was over 100 µM and the TGI (786-0 renal) was over 100 µM. The TGI (K-562 leukemia) was over 100 µM, the TGI (NCI-H226 lung) was over 100 µM and the TGI (M14 melanoma) was over 100 µM. For the same compound, the TGI (SR leukemia) was over 100 µM, the TGI (RPMI-8226 leukemia) was over 100 µM and the TGI (SK-MEL-2 melanoma) was over 100 µM. The TGI (CCRF-CEM leukemia) was over 100 µM, the TGI (XF 498 CNS) was over 100 µM and the TGI (EKVX NSCLC) was over 100 µM. The TGI (LXFL 529 NSCLC) was over 100 µM.
In the case of `Nc1ccc(S(=O)(=O)Nc2ccc(Nc3c4ccccc4nc4ccccc34)cc2)cc1`, the TGI (NCI-H460 lung) is reported as 2.11 µM, the TGI (DMS 114 small cell lung) is reported as 1.9 µM and the TGI (DMS 273 small cell lung) is reported as 3.08 µM. The TGI (A549 NSCLC) was 0.919 µM, the TGI (DLD-1 colon) was 16.6 µM and the TGI (786-0 renal) was 0.352 µM. For the same compound, the TGI (K-562 leukemia) was 17 µM, the TGI (NCI-H226 lung) was 0.851 µM and the TGI (M14 melanoma) was 17.5 µM. The TGI (SR leukemia) was 0.533 µM, the TGI (RPMI-8226 leukemia) was 4.06 µM and the TGI (SK-MEL-2 melanoma) was 15.9 µM. The TGI (CCRF-CEM leukemia) was over 4.64 µM, the TGI (PC-3 prostate) was 17.4 µM and the TGI (XF 498 CNS) was 20.6 µM. It also gave a TGI (EKVX NSCLC) of 14.7 µM and a TGI (LXFL 529 NSCLC) of 20.6 µM.
With `CC(O)c1ccc[n+](Cc2ccccc2)c1` (stereo not given) the TGI (NCI-H460 lung) was over 400 µM, the TGI (DMS 114 small cell lung) was over 400 µM and the TGI (DMS 273 small cell lung) was over 400 µM. For the same compound, the TGI (A549 NSCLC) was over 400 µM, the TGI (DLD-1 colon) was over 400 µM and the TGI (786-0 renal) was over 400 µM. The TGI (K-562 leukemia) was over 400 µM, the TGI (NCI-H226 lung) was over 400 µM and the TGI (SR leukemia) was over 400 µM. The TGI (RPMI-8226 leukemia) was over 400 µM, the TGI (SK-MEL-2 melanoma) was over 400 µM and the TGI (CCRF-CEM leukemia) was over 400 µM. The TGI (XF 498 CNS) was over 400 µM, the TGI (EKVX NSCLC) was over 400 µM and the TGI (LXFL 529 NSCLC) was over 400 µM.
Compound `Cn1c(Cl)cn2c3nc4ccccc4nc3c(=O)c(C#N)c12` has a TGI (NCI-H460 lung) of over 100 µM, a TGI (DMS 114 small cell lung) of over 100 µM and a TGI (DMS 273 small cell lung) of over 100 µM. The TGI (A549 NSCLC) was over 100 µM, the TGI (DLD-1 colon) was over 100 µM and the TGI (786-0 renal) was over 100 µM. For the same compound, the TGI (K-562 leukemia) was over 100 µM, the TGI (NCI-H226 lung) was over 100 µM and the TGI (M14 melanoma) was over 100 µM. The TGI (SR leukemia) was over 100 µM, the TGI (RPMI-8226 leukemia) was over 100 µM and the TGI (SK-MEL-2 melanoma) was over 100 µM. The TGI (CCRF-CEM leukemia) was over 100 µM, the TGI (PC-3 prostate) was over 100 µM and the TGI (XF 498 CNS) was over 100 µM. It also gave a TGI (EKVX NSCLC) of over 100 µM and a TGI (LXFL 529 NSCLC) of over 100 µM.
`CCCCCCCCCCCCCCCCOCC(CP(=O)([O-])OCC[n+]1ccccc1)OC` (stereo not given) gave a TGI (DMS 114 small cell lung) of 26.5 µM, a TGI (DMS 273 small cell lung) of 5.63 µM and a TGI (A549 NSCLC) of 24.1 µM. For the same compound, the TGI (DLD-1 colon) was 11.1 µM, the TGI (786-0 renal) was 28.7 µM and the TGI (K-562 leukemia) was 32.8 µM. It also gave a TGI (NCI-H226 lung) of 15.5 µM, a TGI (M14 melanoma) of 17.9 µM and a TGI (SR leukemia) of 15.3 µM. For the same compound, the TGI (RPMI-8226 leukemia) was 11.8 µM, the TGI (SK-MEL-2 melanoma) was 31.9 µM and the TGI (CCRF-CEM leukemia) was 25.6 µM. The TGI (XF 498 CNS) was 24.7 µM, the TGI (EKVX NSCLC) was 34.7 µM and the TGI (LXFL 529 NSCLC) was 23.5 µM.
